Laboratory results taken from patent publication US9980943B2, “Methods of treating muscular dystrophy” (BOARD OF REGENTS OF THE NEVADA SYSTEM OF HIGHER EDUCATION, …, priority 2013, dated 2018).

Experiments:
Assay type in all cases: cell-based, mouse
[1] = system: α7 integrin (LacZ reporter in α7βgal+/− myoblasts); assay: Myoblast α7+/LacZ integrin FDG assay (Burkin assay in myoblasts, 96-well); conditions: α7+/LacZ myoblasts, 96-well
[2] = system: α7 integrin (LacZ reporter in α7+/LacZ myotubes); assay: Myotube α7 integrin FDG assay (Burkin assay in myotubes, 96-well); conditions: myotubes
[3] = system: β-galactosidase in CMV-LacZ C2C12 myoblasts; assay: CMV-LacZ secondary screen in C2C12 myoblasts (β-Gal stabilizing assay); conditions: CMV-LacZ C2C12 myoblasts
Summary of the method: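 C2C12 myoblasts stably carrying a linearized CMV-driven LacZ construct, clone chosen by β-gal level in the myoblast FDG assay. Compounds tested in 96-well dose-response at 0.5, 1, 5, 10, 20 and 40 μM, N=2 replicates per point, to detect β-gal stabilization.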

[4] = system: β-galactosidase in CMV-LacZ C2C12 myotubes; assay: CMV-LacZ secondary screen in C2C12 myotubes (β-Gal stabilizing assay); conditions: C2C12 CMV-LacZ myotubes, fold relative to DMSO
Summary of the method: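 A secondary screen identifies compounds that stabilize β-gal independently of the native promoter, using CMV-LacZ C2C12 cells. Curves span 0.5–40 μM at six levels, in duplicate.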

| Structure (SMILES) | Burkin Assay in Myoblasts, signal relative to DMSO ([1]; 0.5 uM) | Burkin Assay in Myoblasts, signal relative to DMSO ([1]; 1 uM) | Burkin Assay in Myoblasts, signal relative to DMSO ([1]; 5 uM) | Burkin Assay in Myoblasts, signal relative to DMSO ([1]; 10 uM) | Burkin Assay in Myoblasts, signal relative to DMSO ([1]; 20 uM) | Burkin Assay in Myoblasts, signal relative to DMSO ([1]; 40 uM) | Burkin Assay in Myotubes, α7 integrin LacZ reporter signal relative to DMSO ([2]; 0.5 uM) | Burkin Assay in Myotubes, α7 integrin LacZ reporter signal relative to DMSO ([2]; 1 uM) | Burkin Assay in Myotubes, α7 integrin LacZ reporter signal relative to DMSO ([2]; 5 uM) | Burkin Assay in Myotubes, α7 integrin LacZ reporter signal relative to DMSO ([2]; 10 uM) | Burkin Assay in Myotubes, α7 integrin LacZ reporter signal relative to DMSO ([2]; 20 uM) | Burkin Assay in Myotubes, α7 integrin LacZ reporter signal relative to DMSO ([2]; 40 uM) | CMV-LACZ in Myoblasts (β-galactosidase activity relative to DMSO) ([3]; 0.5 uM) | CMV-LACZ in Myoblasts (β-galactosidase activity relative to DMSO) ([3]; 1 uM) | CMV-LACZ in Myoblasts (β-galactosidase activity relative to DMSO) ([3]; 5 uM) | CMV-LACZ in Myoblasts (β-galactosidase activity relative to DMSO) ([3]; 10 uM) | CMV-LACZ in Myoblasts (β-galactosidase activity relative to DMSO) ([3]; 20 uM) | CMV-LACZ in Myoblasts (β-galactosidase activity relative to DMSO) ([3]; 40 uM) | CMV-LACZ in Myotubes, signal relative to DMSO ([4]; 0.5 uM) | CMV-LACZ in Myotubes, signal relative to DMSO ([4]; 1 uM) | other results |
| --- | --- | --- | --- | --- | --- | --- | --- | --- | --- | --- | --- | --- | --- | --- | --- | --- | --- | --- | --- | --- | --- |
| CC1CCCCC1NC(=O)CSc1nnc(COc2ccc(Cl)cc2)o1 (stereo not drawn) [MLS000948055-01] | 1.328 | 1.053 | 1.136 | 0.8986 | 0.8213 | 0.5867 | 1.067 | 1.054 | 0.9053 | 0.8264 | 0.98 | 0.7514 | 0.7540 | 0.9674 | 1.0787 | 1.0993 | 0.5407 | 0.5522 | 1.0895 | 0.9638 | CMV-LACZ in Myotubes, signal relative to DMSO ([4]; 5 uM): 1.2519; CMV-LACZ in Myotubes, signal relative to DMSO ([4]; 10 uM): 1.1022; CMV-LACZ in Myotubes, signal relative to DMSO ([4]; 20 uM): 1.2212; CMV-LACZ in Myotubes, signal relative to DMSO ([4]; 40 uM): 1.0753 |
| CCOC(=O)C1(Cc2cccc(Cl)c2)CCCN(C(=O)CCSC)C1 (stereo not drawn) [MLS001000299-01] | 1.089 | 0.9953 | 0.9552 | 0.975 | 0.9397 | 0.7738 | 0.9225 | 1.006 | 0.8764 | 0.9163 | 0.793 | 0.5578 | 1.4188 | 1.2745 | 0.9901 | 0.8248 | 1.1522 | 1.0107 | 0.6411 | 1.3158 | CMV-LACZ in Myotubes, signal relative to DMSO ([4]; 5 uM): 1.0658; CMV-LACZ in Myotubes, signal relative to DMSO ([4]; 10 uM): 0.9029; CMV-LACZ in Myotubes, signal relative to DMSO ([4]; 20 uM): 0.9544; CMV-LACZ in Myotubes, signal relative to DMSO ([4]; 40 uM): 1.0744 |
| O=CN1CCN(C(=O)CC(c2ccccc2)c2cc(Br)ccc2O)CC1 (stereo not drawn) [MLS001000874-01] | 1.175 | 1.033 | 1.077 | 0.8677 | 1.007 | 0.9545 | 0.9357 | 0.8646 | 1.0731 | 0.9216 | 0.9266 | 0.8181 | 1.1029 | 1.0442 | 0.8886 | 1.0295 | 1.0556 | 1.1100 | 1.0943 | 1.1590 | CMV-LACZ in Myotubes, signal relative to DMSO ([4]; 5 uM): 1.1124; CMV-LACZ in Myotubes, signal relative to DMSO ([4]; 10 uM): 0.9960; CMV-LACZ in Myotubes, signal relative to DMSO ([4]; 20 uM): 1.1484; CMV-LACZ in Myotubes, signal relative to DMSO ([4]; 40 uM): 1.0947 |
